Assay results as given in ChEMBL document CHEMBL4396877, “Design and Synthesis of TASIN Analogues Specifically Targeting Colorectal Cancer Cell Lines with Mutant Adenomatous Polyposis Coli (APC)” (J Med Chem, 2019).

Key:
[1] = Cmax in CD-1 mouse large intestine at 10 mg/kg, iv after 10 to 1440 mins by LC/MS analysis; type: ADME, organism-based; set-up: dose 10 mg/kg, route intravenous
[2] = AUClast in CD-1 mouse Large intestine at 10 mg/kg, iv after 10 to 1440 mins by LC/MS analysis; type: ADME, organism-based; details: in vivo
[3] = Volume of distribution in CD-1 mouse by LC-MS/MS analysis; type: ADME; details: in vivo
[4] = Cmax in CD-1 mouse large intestine at 10 mg/kg, ip after 10 to 1440 mins by LC/MS analysis; type: ADME, organism-based; set-up: dose 10 mg/kg, route intraperitoneal
[5] = Tmax in CD-1 mouse large intestine at 10 mg/kg, ip after 10 to 1440 mins by LC/MS analysis; type: ADME, organism-based
[6] = AUClast in CD-1 mouse Large intestine at 10 mg/kg, ip after 10 to 1440 mins by LC/MS analysis; type: ADME, organism-based; details: in vivo
[7] = Cmax in CD-1 mouse large intestine at 5 mg/kg, iv after 10 to 1440 mins by LC/MS analysis; type: ADME, organism-based; set-up: dose 5 mg/kg, route intravenous
[8] = Cmax in CD-1 mouse large intestine at 20 mg/kg, po after 10 to 1440 mins by LC/MS analysis; type: ADME, organism-based; set-up: dose 20 mg/kg, route oral
[9] = Tmax in CD-1 mouse large intestine at 5 mg/kg, iv after 10 to 1440 mins by LC/MS analysis; type: ADME, organism-based
[10] = Tmax in CD-1 mouse large intestine at 20 mg/kg, po after 10 to 1440 mins by LC/MS analysis; type: ADME, organism-based
[11] = AUClast in CD-1 mouse Large intestine at 5 mg/kg, iv after 10 to 1440 mins by LC/MS analysis; type: ADME, organism-based; details: in vivo
[12] = AUClast in CD-1 mouse Large intestine at 20 mg/kg, po after 10 to 1440 mins by LC/MS analysis; type: ADME, organism-based; details: in vivo
[13] = Ratio of drug level in lung to plasma of CD-1 mouse at 5 mg/kg, iv; type: ADME, organism-based
[14] = Tmax in CD-1 mouse large intestine at 10 mg/kg, iv after 10 to 1440 mins by LC/MS analysis; type: ADME, organism-based

Row | SMILES | Cmax [1] [ng/g] | AUClast [2] [ng·min/g] | Vd [3] [L/kg] | Cmax [4] [ng/g] | Tmax [5] [min] | AUClast [6] [ng·min/g] | Cmax [7] [ng/g] | Cmax [8] [ng/g] | Tmax [9] [min] | Tmax [10] [min] | AUClast [11] [ng·min/g] | AUClast [12] [ng·min/g] | Kp [13] | Tmax [14] [min]
1 | CC1CCN(C2CCN(S(=O)(=O)c3ccc(Cl)cc3)CC2)CC1 | 1410 | 262874 | 5.87 to 63 | – | – | – | – | – | – | – | – | – | – | –
2 | COc1ccc(S(=O)(=O)N2CCC(N3CCC(C)CC3)CC2)cc1 | – | – | – | 10700 | 10 | 737709 | – | – | – | – | – | – | – | –
3 | CC1CCN(C2CCN(S(=O)(=O)c3ccc(OC(F)F)cc3)CC2)CC1 | – | – | 5.87 to 63 | 10100 | 10 | 790425 | 1820 | 3250 | 10 | 10 | 511878 | 890969 | 5.7 | –
4 | C#CCC1CCN(C2CCN(S(=O)(=O)c3ccc(Br)cc3)CC2)CC1 | 2970 | 559037 | 5.87 to 63 | 5750 | 10 | 633289 | – | – | – | – | – | – | – | 10
